In the supplement of paper PMC10307832:

Key:
Experiment in all cases: relative viability (nuclei count vs DMSO), 5 days (fraction); higher = more cells survive
MK-2206 + Lapatinib = compound: NC1(c2ccc(-c3nc4ccn5c(=O)[nH]nc5c4cc3-c3ccccc3)cc2)CCC1 [MK-2206] + CS(=O)(=O)CCNCc1ccc(-c2ccc3ncnc(Nc4ccc(OCc5cccc(F)c5)c(Cl)c4)c3c2)o1 [Lapatinib] (partner 2 µM)
Procedure, shortened: (§1)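 Lung cancer cell lines, seeded in 1536-well plates, were treated the following day by pin tool with a single drug or with five library-drug doses (not always all listed) in √10 steps on top of a fixed anchor-drug dose. Cells were fixed and nuclei stained in one step after 5 days, and nuclei were counted. Relative viability is the nuclei count for treated wells divided by that for vehicle wells, reported as medians of duplicate plates.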

MK-2206 + Dasatinib = compound: NC1(c2ccc(-c3nc4ccn5c(=O)[nH]nc5c4cc3-c3ccccc3)cc2)CCC1 [MK-2206] + Cc1nc(Nc2ncc(C(=O)Nc3c(C)cccc3Cl)s2)cc(N2CCN(CCO)CC2)n1 [Dasatinib] (partner 0.075 µM)
Procedure, shortened: as §1

MK-2206 + Tozasertib = compound: NC1(c2ccc(-c3nc4ccn5c(=O)[nH]nc5c4cc3-c3ccccc3)cc2)CCC1 [MK-2206] + Cc1cc(Nc2cc(N3CCN(C)CC3)nc(Sc3ccc(NC(=O)C4CC4)cc3)n2)n[nH]1 [Tozasertib] (partner 0.1 µM)
Procedure, shortened: as §1

MK-2206 + Pictilisib = compound: NC1(c2ccc(-c3nc4ccn5c(=O)[nH]nc5c4cc3-c3ccccc3)cc2)CCC1 [MK-2206] + CS(=O)(=O)N1CCN(Cc2cc3nc(-c4cccc5[nH]ncc45)nc(N4CCOCC4)c3s2)CC1 [Pictilisib] (partner 1 µM)
Procedure, shortened: as §1

MK-2206 + Alpelisib = compound: NC1(c2ccc(-c3nc4ccn5c(=O)[nH]nc5c4cc3-c3ccccc3)cc2)CCC1 [MK-2206] + Cc1nc(NC(=O)N2CCC[C@H]2C(N)=O)sc1-c1ccnc(C(C)(C)C(F)(F)F)c1 [Alpelisib] (partner 2 µM)
Procedure, shortened: as §1

In the case of UMC-11, the relative viability (MK-2206 + Lapatinib; first compound 0.01 µM) is reported as 1.27, the relative viability (MK-2206 + Lapatinib; first compound 0.03162 µM) is reported as 1.1 and the relative viability (MK-2206 + Lapatinib; first compound 0.3162 µM) is reported as 0.99. For the same cell line, the relative viability (MK-2206 + Lapatinib; first compound 1 µM) was 0.941, the relative viability (MK-2206 + Dasatinib; first compound 0.01 µM) was 0.465 and the relative viability (MK-2206 + Dasatinib; first compound 0.03162 µM) was 0.434. For the same cell line, the relative viability (MK-2206 + Dasatinib; first compound 0.3162 µM) was 0.503, the relative viability (MK-2206 + Dasatinib; first compound 1 µM) was 0.475 and the relative viability (MK-2206 + Tozasertib; first compound 0.01 µM) was 0.194. For the same cell line, the relative viability (MK-2206 + Tozasertib; first compound 0.03162 µM) was 0.2, the relative viability (MK-2206 + Tozasertib; first compound 0.3162 µM) was 0.214 and the relative viability (MK-2206 + Tozasertib; first compound 1 µM) was 0.192. The relative viability (MK-2206 + Pictilisib; first compound 0.01 µM) was 0.762, the relative viability (MK-2206 + Pictilisib; first compound 0.03162 µM) was 0.821 and the relative viability (MK-2206 + Pictilisib; first compound 0.3162 µM) was 0.837. For the same cell line, the relative viability (MK-2206 + Pictilisib; first compound 1 µM) was 0.616, the relative viability (MK-2206 + Alpelisib; first compound 0.01 µM) was 1.03 and the relative viability (MK-2206 + Alpelisib; first compound 0.03162 µM) was 0.908. The relative viability (MK-2206 + Alpelisib; first compound 0.3162 µM) was 1.1 and the relative viability (MK-2206 + Alpelisib; first compound 1 µM) was 0.994.
